Experimental data reported in patent US9018176B2, “Inducers of hematopoiesis and fetal globin production for treatment of cytopenias and hemoglobin disorders” (priority 2010, dated 2015).

Tests used:
CB BFU-E cells = experiment: CB BFU-E cell proliferation (cells/colony); details: FIG. 8
Experimental: Fetal globin-inducing activity in human erythroid progenitors was assessed. Human erythroid progenitors were cultured from peripheral blood samples, exposed to the test compounds at varying concentrations and for varying durations and analyzed for globin chain mRNA ratios. Erythroid progenitors were cultured from cord blood CD34+ cells. Briefly, CD34+ cells in the human cord blood were separated using a Ficoll-paque density gradient. CD34+ cells were cultured in H4230 medium containing 2 mM L-glutamine, 1% Methylcellulose in Iscove's Medium, 30% Fetal Bovine Serum, 1% Bovine Serum Albumin and 10^-4 M β-mercaptoethanol. Methylcellulose H4230 medium was supplemented with EPO (0.5 U/ml) and IL-3 (20 ng/ml) to support BFU-e growth. Cells were cultured in […] mini-dishes and incubated in a humidified atmosphere containing 5% CO2, at 37° C. Different concentrations of the test compounds were added at the time the cultures were established. Each compound was tested in three different cultures. BFU-e colonies grown in mini-dishes were counted on day 14 and harvested for mRNA analysis.

γ-globin gene promoter = experiment: Dual luciferase reporter assay (μLCRβprRlucAγprFluc cassette) in GM979 cells; type: cell-based; details: Resveratrol at 10 μM, MS-275 at 5 μM
Excerpt: Cell-based screen for γ-globin inducing compounds in GM979 cells (Skarpidi, et al. Blood 2000; 96:321-326). Mini-gene construct integrated into GM979 cell genome. The readout is Firefly/Renilla luciferase ratio, and is designed to identify only strong inducers of the γ-globin promoter, and specificity for the γ- vs. the […]γ-globin gene. This second assay confirmed 12/15 candidates.
This assay is […], and consists of a dual-luciferase reporter construct containing the LCR and the […] luciferase and the Aγ-globin promoter linked to firefly luciferase (μLCRβprRlucAγprFluc cassette), stably-transfected into GM979 cells. The orientation of the promoters and μLCR allowed detection only of strong, specific inducers of the γ-globin gene promoter. This assay is also been predictive of in vivo HbF-inducing activity.
The γ-globin-specificity of hits was determined in a secondary assay employing a stably-transfected dual-luciferase reporter construct containing the LCR and the β-globin promoter linked to renilla luciferase and the Aγ-globin promoter linked to firefly luciferase (μLCRβprRlucAγprFluc cassette) (FIG. 2B).

histone deacetylases = experiment: Histone deacetylase inhibition
γ-globin mRNA [1] = experiment: γ-globin mRNA in cultured primary human erythroid progenitors (BFU-e), real-time PCR; type: cell-based; details: Resveratrol 0.2 uM
γ-globin mRNA [2] = experiment: as above; type: cell-based
Experimental: Erythroid progenitors were cultured from cord blood CD34+ cells. […] Each compound was tested in three different cultures. […] On day 14, RNA was extracted from cultured erythroid cells, and relative quantification PCR was performed. Briefly, cDNA was generated from equal amounts of total RNA extracted using The PerfectPure RNA Purification Kit (5 Prime Inc Gaithersburg, Md.). Real-time PCR was performed using an ABI 7500 Real-Time PCR system (Applied Biosystems, Foster City, Calif.). Levels of globin mRNA were calculated by the ΔΔCt method. […] GAPDH levels were used for standardization. Western blotting Nuclear extract of K562 cells and 14-day-old BFU-e were analyzed by electrophoresis using 5-24% gradient SDS-polyacrylamide mini-gels (BIORAD Laboratories. Hercules Calif.). Proteins in the gels were transferred to Immobilon-P membranes. Blots were then incubated with BCL11A polyclonal (Novus Biologicals, Littleton Co) or mouse monoclonal (Santa Cruz Biotechnology, Santa Cruz Calif.) antibodies, after washing blots were incubated with anti-rabbit IgG-horseradish peroxidase secondary antibody (ECL, Little Chalfont Buckinghamshire UK). BCL11A bands were detected on the X-ray film using Western Lightning Reagents (Perking Elmer Inc, Waltham, Mass.).

γ-globin mRNA [3] = experiment: γ-globin mRNA gene expression in K562 cells; type: cell-based
[4] = Hemoglobin disorder progenitors

In the case of Oc1ccc(C=Cc2cc(O)cc(O)c2)cc1 [Resveratrol, resveratrol], the “number of blood cells per colony” value (CB BFU-E cells) is reported as “increase the number of blood cells per colony”, the “cytotoxicity / inhibition of erythroid cell proliferation” value (CB BFU-E cells; Desloratadine 1 μM-10 μM, Resveratrol 0.05 μM-5 μM, Benserazide 0.1 μM-10 μM) is reported as “non-cytotoxic” and the “activity compared with sodium Butyrate” value (γ-globin gene promoter; Ambroxol at 1 μM, Desloratadine at 1 μM, Benserazide at 0.03 μM (or a range of 30 nM-5 μM), NSC-95397 at 1 μM, versus sodium Butyrate at 2000 μM) is reported as “significantly more active”. For the same compound, the “most active at inducing γ-globin mRNA expression” value (γ-globin gene promoter; Benserazide at 0.03 μM) was “most active”, the “concentration that inhibits histone deacetylases” value (histone deacetylases) was 0.05 µM and the “fetal globin mRNA, Mean” value (γ-globin mRNA [1]; Cord Blood progenitors) was 217 % of control. The “responses (cultures with induced fetal globin mRNA)” value (from here on “responses”) (γ-globin mRNA [1]; Cord Blood progenitors) was 5/5, the “fetal globin mRNA, Mean” value (γ-globin mRNA [1]; [4]) was 245 % of control and the “responses” value (γ-globin mRNA [1]; [4]) was 1/2. The “fetal globin mRNA, Mean” value (γ-globin mRNA [1]; Normal progenitors) was 122 % of control, the “responses” value (γ-globin mRNA [1]; Normal progenitors) was 1/2 and the “% induction of γ-globin mRNA gene expression” value (γ-globin mRNA [2]; FIG. 4C, HFU-E (burst-forming units-erythroid) cells, Resveratrol 30 μM, desloratadine 50 μM, NSC 50 μM, Benserazine 5 μM) was “most significant % increase”. For the same compound, the “γ-globin mRNA induction” value (γ-globin mRNA [2]; cultured primary human erythroid progenitors, concentrations pharmacologically achievable in humans) was “up to 3 fold”, the “concentrations that induce fetal globin (HbF) mRNA” value (γ-globin mRNA [2]; primary erythroid progenitors in vitro) was 0.05 µM and the “concentration giving the most γ-globin mRNA expression” value (γ-globin mRNA [3]; FIG. 5, K562 cells, tested Desloratadine 10 μM-100 μM, Resveratrol 5 μM-30 μM, NSC 1 μM-50 μM) was 30 µM. For the same compound, the “% induction of γ-globin mRNA gene expression” value (γ-globin mRNA [3]; FIGS. 4A and 4B, K562 cells, Resveratrol 30 μM, desloratadine 50 μM, NSC 50 μM, Benserazine 5 μM) was “most significant % increase”.
